# Legend:
# tumor cell invasion = conditions: cited from earlier work
# uPA = uPA (Homo sapiens, UniProt P00749); conditions: L-confirmation; cited from earlier work
# plasmin = plasmin (Homo sapiens, UniProt P00747); conditions: L-confirmation; cited from earlier work
# BN472 rat mammary tumors = system: BN472 rat mammary tumors
# Method: Small tumor cubes (2×2×2 mm) were prepared from a tumor grown in a donor rat and implanted orthotopically under the fat pad of the mammary gland.
# The effects of treatments on body weight and tumor load were evaluated twice weekly. The final evaluation was done at the end of the therapy period after all rats had been sacrificed. Graphical evaluations of the endpoints considered, i.e., tumor size and weight, axillary lymph-node weights, the number of macroscopic lung foci, and the weights of the thymus, uterus, spleen and liver, are depicted in FIGS. 3, 3a, 3b, 3c, 3d and 3e.
# [1] = irinotecan mono-therapy, both doses (2 and 6 mg/kg daily i.p.)
# plasmin, sequence (P00747 581-810 limits assumed, species assumed): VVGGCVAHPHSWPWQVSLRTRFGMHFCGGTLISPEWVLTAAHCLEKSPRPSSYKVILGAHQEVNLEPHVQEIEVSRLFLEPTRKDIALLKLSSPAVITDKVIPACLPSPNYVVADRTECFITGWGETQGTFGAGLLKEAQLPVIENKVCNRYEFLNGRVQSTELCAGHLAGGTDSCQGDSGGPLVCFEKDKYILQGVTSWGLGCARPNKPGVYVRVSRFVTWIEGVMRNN
# plasmin, sequence (P00747 97-580 partner limits assumed, species assumed): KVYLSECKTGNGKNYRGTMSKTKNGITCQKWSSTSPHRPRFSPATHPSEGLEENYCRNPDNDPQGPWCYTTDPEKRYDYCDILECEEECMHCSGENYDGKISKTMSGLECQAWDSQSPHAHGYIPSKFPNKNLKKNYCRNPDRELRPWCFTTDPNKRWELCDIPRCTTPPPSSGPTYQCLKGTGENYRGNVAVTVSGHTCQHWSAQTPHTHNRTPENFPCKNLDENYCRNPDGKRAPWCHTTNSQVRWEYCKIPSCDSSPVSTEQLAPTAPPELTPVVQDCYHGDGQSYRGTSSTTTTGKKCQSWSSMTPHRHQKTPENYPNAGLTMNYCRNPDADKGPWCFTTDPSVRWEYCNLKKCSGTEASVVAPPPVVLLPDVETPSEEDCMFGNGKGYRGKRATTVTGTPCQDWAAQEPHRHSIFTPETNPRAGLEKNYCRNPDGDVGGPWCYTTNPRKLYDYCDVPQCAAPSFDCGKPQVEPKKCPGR
Structure (SMILES),tumor cell invasion in vitro (tumor cell invasion),"Ki values, inhibition of uPA (uPA)","Ki values, inhibition of plasmin (plasmin)","tolerability (daily observations during the treatment period) (BN472 rat mammary tumors; WX-671 0.3 mg/kg daily p.o., irinotecan 2 or 6 mg/kg daily i.p.)",axillary lymph-nodes weight (BN472 rat mammary tumors; [1]),number of lung foci (BN472 rat mammary tumors; [1]),"tumor growth (BN472 rat mammary tumors; irinotecan mono-therapy, daily i.p.)"
"CCOC(=O)N1CCN(C(=O)[C@H](Cc2cccc(C(=N)N)c2)NS(=O)(=O)c2c(C(C)C)cc(C(C)C)cc2C(C)C)CC1 [WX-UK1, N[alpha]-(2,4,6-triisopropylphenylsulfonyl)-3-amidino-(L)-phenylalanine 4-ethoxycarbonylpiperazide]",suppress tumor cell invasion in vitro,low- or sub-micromoles range,low- or sub-micromoles range,,,,
CCc1c2c(nc3ccc(OC(=O)N4CCC(N5CCCCC5)CC4)cc13)-c1cc3c(c(=O)n1C2)COC(=O)[C@]3(O)CC [irinotecan],,,,generally well tolerated,significantly inhibited,significantly inhibited,inhibition of tumor growth
